Patent US20020150912A1, “Reporter system for cell surface receptor-ligand binding” (priority 2000, published 2002)
Like-named read-outs stand apart in the source and are kept apart here. One block for each compound: values may come before it.

Assays:
HeLa cells = assay: Luciferase assay of HeLa cells transiently transfected with prototypic reporter plasmids; assay type: cell-based; conditions: Homo sapiens, 10 h, 100 nM PMA, or 100 nM PMA and 10^−6 M thapsigargin, read-out: Amplification value
Method: (§1) Cells electroporated for transient expression were stimulated with 100 nM PMA for 10 hours. Amplification was calculated as the ratio between the relative luminescence units (RLU) of stimulated and non-stimulated cells. Results are expressed as mean values+SEM of three to four independent transfection experiments each performed in triplicate; n.d.=not determined.
(§2) The medium was removed and cell lysis buffer added. Plates were stored at −70° C. until further analysis.
(§3) The prototypic reporter plasmids (pcFUS2; pcFUS2-6xSTAT/NFκB; pcFUS3 and pGL3-12xSTAT/NFκB) were used to transfect HeLa cells transiently by electroporation. Cells were stimulated 24 h post transfection with 100 nM PMA or 100 nM PMA and 10^−6 M thapsigargin or treated as controls. After 10 h of incubation, the cells were lysed and assayed.

[1] = test system: reporter plasmids in HeLa cells; assay: HeLa cells transiently transfected with reporter plasmids, luciferase amplification; assay type: cell-based; conditions: 100 nM PMA, 10^−6 M thapsigargin where added, 10 h, ratio of RLU, stimulated to non-stimulated cells
Method: as §1, §2, §3

chemokine receptor, CCR5 [2] = molecular target: T1, chemokine receptor, CCR5 (Homo sapiens, UniProt P51681); assay: cell-based or functional assay
T1 sequence (P51681 whole entry): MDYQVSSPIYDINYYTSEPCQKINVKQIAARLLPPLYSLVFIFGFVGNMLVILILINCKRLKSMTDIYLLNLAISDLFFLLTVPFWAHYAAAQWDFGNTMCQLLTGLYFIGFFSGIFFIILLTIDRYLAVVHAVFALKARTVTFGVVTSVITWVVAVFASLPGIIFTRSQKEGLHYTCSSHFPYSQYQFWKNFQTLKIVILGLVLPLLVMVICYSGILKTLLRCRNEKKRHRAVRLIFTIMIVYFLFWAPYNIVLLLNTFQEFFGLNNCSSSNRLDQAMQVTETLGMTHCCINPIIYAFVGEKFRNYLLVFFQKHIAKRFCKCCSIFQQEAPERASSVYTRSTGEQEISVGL

[3] = test system: endogenous ATP receptors present in the HeLa cells; assay: HF1 reporter cell luciferase assay, endogenous ATP receptors; assay type: cell-based; conditions: stimulation for 16 hours, read-out: EC50, TRE-mediated luciferase response
Method: FIG. 5 illustrates the response of endogenous ATP receptors present in the HeLa cells used to establish a reporter cell line, HF1, of the invention.
A. Dose-response curve following stimulation with varying concentrations of ATP for 16 hours. […] Error bars indicate± SEM.
as §2

chemokine receptor, CCR5 [4] = molecular target: T1, chemokine receptor, CCR5; assay: HF1pCCR5 reporter cell luciferase assay; assay type: cell-based; set-up: All receptor ORFs were inserted into the pIRESpuro vector (Clontech) by standard techniques; expressed in transfected cells; host or cells: HeLa-derived HF1 reporter cells (HF1pCCR5), pIRESpuro vector; conditions: CCR5 stably expressed in HF1 reporter cells; read-out: EC50 (agonist concentration giving half maximum effect)
[5] = plasmid pcFUS3 (6 × STAT/NFκB; 9 × AP-1)

Compound: CCCCCCCCCCCCCC(=O)O[C@@H]1[C@@H](C)[C@@]2(O)[C@@H](C=C(CO)C[C@]3(O)C(=O)C(C)=C[C@@H]23)[C@@H]2C(C)(C)[C@]12OC(C)=O [PMA]
- fold induction at 0.1 µM (HeLa cells; plasmid pGL3-12 × STAT/NFκB): 4.16 ± 2
- fold induction at 0.1 µM (HeLa cells; plasmid pcFUS2 (9 × AP-1)): 2.53 ± 2
- fold induction at 0.1 µM (HeLa cells; plasmid pcFUS2-6 × STAT/NFκB): 3.78 ± 1.44
- fold induction at 0.1 µM (HeLa cells; [5]): 7.37 ± 3.29
- Amplification value ([1]; plasmid pGL3-12 × STAT/NFκB): 4.16 ± 2.00
- Amplification value ([1]; plasmid pcFUS2 (9 × AP-1)): 2.53 ± 2.00
- Amplification value ([1]; plasmid pcFUS2-6 × STAT/NFκB): 3.78 ± 1.44
- Amplification value [1, 5]: 7.37 ± 3.29

- EC50 (agonist concentration giving half maximum effect), luciferase reporter in HF1 cells stably expressing CCR5 (chemokine receptor, CCR5 [2]): 111 nM
Compound: RANTES (from UniProt P13501 24-91) (ligand)

Compound: Nc1ncnc2c1ncn2[C@@H]1O[C@H](COP(=O)(O)OP(=O)(O)OP(=O)(O)O)[C@@H](O)[C@H]1O [ATP]
- EC50 [3]: 107000 nM

- EC50 (chemokine receptor, CCR5 [4]): 111 nM
Compound: RANTES: a peptide (having the sequence RANTES), agonist of the chemokine receptor CCR5
